pEC50: −log10 of the molar value.

Data set [1] deals with T1, Bovine pancreas α-chymotrypsin (Bos taurus, UniProt P00766, DEL14-15/DEL147-148).
T1 construct: Bovine pancreas α-chymotrypsin (type II, Sigma); purchased Sigma type II; host or cells: bovine pancreas
The data set can be described thus: Chymotrypsin assay. It is filed as biochemical. The settings on record: @ 33 µM; read-out: Chymotrypsin % @ Conc. The method, then:
The chymotrypsin assay was modified from the method of Delmar et al [Anal. Biochem., 99, 316-320 (1979)]. Bovine pancreas α-chymotrypsin (type II, Sigma) was dissolved in 0.001 N HCl at 1 mg/ml and further diluted 1/600 in assay buffer (0.1 M Tris, pH 7.8, containing 0.1 M CaCl2) before use. 20 µl of test compound in DMSO (or DMSO alone), 100 µl of assay buffer and 30 µl of enzyme were added to 96 well plates, mixed and pre-incubated for 30 minutes at ambient temperature. Reaction was initiated by addition of 50 µl of 0.2 mM N-succinyl-Ala-Ala-Pro-Phe-p-nitroanilide (Sigma; 2 mM in DMSO diluted 1/10 in assay buffer before use). The increase in absorbance at 405 nm was monitored for 10 minutes with a Biotek EL340 plate reader.

The next data set has as its system HCMV. Nature of the data set: HCMV antiviral assay, format (RC256 or ELISA) not given. The following applies: Human betaherpesvirus 5, read-out: Antiviral Activity EC50. It is filed as cell-based. The text has this:
(§1) These complimentary assays tested the ability of a compound to inhibit the production of new virus and the toxicity of the compound to the host cells. It was important that both assays be performed simultaneously in order to compare the results directly since, toxicity may indirectly reduce viral yield.
Viral yield was estimated by measuring the amount of a viral antigen produced 4 days post infection with a monoclonal antibody to an abundant "immediate early" viral protein. An enzyme-linked (horseradish peroxidase) secondary antibody specific to the primary (mouse) antibody was used to measure the amount of viral antigen. Test compounds were diluted to 2-times the desired final concentration in DMEM + 5% FBS. One hundred microliters of this solution was placed in each well of a 96-well plate. This was performed once for the antiviral 96-well plate and again for a cytotoxicity plate. […]
The following was performed on the antiviral plate only. […] The reaction was stopped by adding 100 µL of phosphoric acid and the OD at 450 nm recorded. […] Antiviral activity was calculated by comparing the amount of viral antigen produced in drug treated wells with that produced in wells absent of drug. […]
In this assay, HCMV replication was monitored by the production of E. coli beta-galactosidase by the engineered virus RC256 [Spaete and Mocarski, Proc.Nat.Acad.Sci., 84, 7213 (1987)]. […]

A short description of the next data set: in vitro. It is filed as cell-based. The settings on record: human, human foreskin fibroblasts.
Text: as §1
Viral yield was estimated by measuring the amount of a viral antigen produced 4 days post infection with a monoclonal antibody to an abundant "immediate early" viral protein. An enzyme-linked (horseradish peroxidase) secondary antibody specific to the primary (mouse) antibody was used to measure the amount of viral antigen. Test compounds were diluted to 2-times the desired final concentration in DMEM + 5% FBS. One hundred microliters of this solution was placed in each well of a 96-well plate. This was performed once for the antiviral 96-well plate and again for a cytotoxicity plate. Two controls were also included for both plates; a no drug control and a no virus control. Ganciclovir was routinely tested in antiviral and cytotoxicity plates as a reference standard because it has known antiviral activity for HCMV. All cells were prepared by harvesting human foreskin fibroblasts, with trypsin and re-suspending at a concentration of 5 X 10^5 cells per ml in DMEM. Infected cells were prepared by infecting these with HCMV (strain AD169) at a multiplicity of infection = 0.2. One hundred microliters of uninfected cells (5 x 10^4 cells) were added to the appropriate wells of the cytotoxicity plate. In a similar manner 100 µl of infected cells (5 x 10^4 cells) were added to the appropriate wells of the antiviral plate. Additionally, uninfected cells not treated with test compound were included as controls on the antiviral plate. Plates were incubated for 96 hours at 37°C in 5% CO2 atmosphere and processed to measure the amount of viral antigen and toxicity.
In this assay, HCMV replication was monitored by the production of E. coli beta-galactosidase by the engineered virus RC256 [Spaete and Mocarski, Proc.Nat.Acad.Sci., 84, 7213 (1987)]. One antiviral assay and one cytotoxicity assay were done for each compound. Dilutions of test compounds and infection of cells in a 96-well plate was essentially as described above for the HCMV ELISA except for the following. Human foreskin fibroblasts at 3.5 x 10^5 cells per milliliter were infected in solution with RC256 at 0.05 pfu per cell. Compounds and cells were incubated 3 days and processed at […]. For the beta galactosidase detection, the supernatant was aspirated from the antiviral assay plates and 50 µl Reporter Lysis Buffer (Promega, diluted to 1X with water) was added per well. The plates were incubated at room temperature at least 30 minutes and plates were frozen at -20 °C at this point for later processing. 50 µl of 2X assay buffer [120 mM Na2HPO4, 80 mM NaH2PO4, 2 mM MgCl2, 100 mM 2-mercaptoethanol, 4.4 mM ONPG (Sigma)] was added per well and incubated at room temperature 30 to 45 minutes. The reaction was stopped with 100 µl 1M CAPS buffer, pH = 11.0, per well and the optical density was read at 410 nanometers. Ganciclovir was used as a positive control and the EC50 was determined as described above for the HCMV ELISA. Results (EC50/TD50) are included in Table 1.

The target of data set [2] is T2, Human leukocyte elastase (HLE) (Homo sapiens, UniProt P08246).
T2 construct: gift of R. Senior, Washington University
T2 sequence (P08246 30-267): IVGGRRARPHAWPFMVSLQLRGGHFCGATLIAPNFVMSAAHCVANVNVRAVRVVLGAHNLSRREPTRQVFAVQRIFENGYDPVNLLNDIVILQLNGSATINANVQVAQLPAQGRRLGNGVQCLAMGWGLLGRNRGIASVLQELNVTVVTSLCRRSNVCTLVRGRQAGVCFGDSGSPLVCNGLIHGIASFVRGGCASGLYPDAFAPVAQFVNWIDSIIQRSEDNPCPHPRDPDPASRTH
Nature of the data set: Human leukocyte elastase assay. The following applies: @ 24 µM; read-out: HLE % @ Conc. The data set is classed as biochemical.
Protocol: Human leukocyte elastase (HLE) (gift of R. Senior, Washington University) was dissolved in saline at 1 mg/ml and further diluted 1/20 in assay buffer (0.2 M Tris, pH 8.0) before use. 10 µl of test compound in DMSO (or DMSO alone), 100 µl of assay buffer and 50 µl of enzyme were added to 96 well plates, mixed and pre-incubated for 30 minutes at ambient temperature. Reaction was initiated by addition of 40 µl of 2.5 mM methoxysuccinyl-Ala-Ala-Pro-Val-p-nitroanilide (Sigma; 25 mM in DMSO diluted 1/10 in assay buffer before use). The increase in absorbance at 405 nm was monitored for 10 minutes with a Biotek EL340 plate reader.

On to `O=C(Nc1ccc(I)cc1C(=O)C(F)(F)F)c1ccco1` [Example 13, N-[4-iodo-2-(2,2,2-trifluoro-1-oxoethyl)phenyl]furan-2-carboxamide], for which, in data set [1], the inhibition at 33 µM stood at 39%. Moreover, the pEC50 in the data set on HCMV is 4.55. This molecule also showed a cytotoxic concentration (CC50) in “in vitro” greater than 100 µM. Moreover, in data set [2], the inhibition at 24 µM was 50%.

These data come from patent publication EP0888322B1, “ELECTROPHILIC KETONES FOR THE TREATMENT OF HERPESVIRUS INFECTIONS” (G.D. SEARLE & CO., priority 1996, dated 1997).
